Assay results taken from ChEMBL document CHEMBL1177848, “Synthesis of novel 6,6a,7,8-tetrahydro-5H-naphtho[1,2-e]pyrimido[4,5-b][1,4]diazepines under microwave irradiation as potential anti-tumor agents” (2010).
Active and inactive are the calls of the source. The calls are words filed in the database; no cut-off is given here.

Assays:
MDA-MB-468 = test: Growth inhibition of human MDA-MB-468 cells after 48 hrs by sulforhodamine B assay; assay type: functional; conditions: MDA-MB-468, 48 h
RXF 393 = test: Growth inhibition of human RXF393 cells at 1 uM after 48 hrs by sulforhodamine B assay; assay type: functional, cell-based
MDA-MB-435 = test: Growth inhibition of human MDA-MB-435 cells at 1 uM after 48 hrs by sulforhodamine B assay; assay type: functional, cell-based
TK-10 = test: Growth inhibition of human TK10 cells after 48 hrs by sulforhodamine B assay; assay type: functional; conditions: TK-10, 48 h
SK-MEL-2 = test: Growth inhibition of human SK-MEL-2 cells at 1 uM after 48 hrs by sulforhodamine B assay; assay type: functional, cell-based
RPMI-8226 [1] = test: Growth inhibition of human RPMI8226 cells at 1 uM after 48 hrs by sulforhodamine B assay; assay type: functional, cell-based
HOP-92 = test: Growth inhibition of human HOP92 cells at 1 uM after 48 hrs by sulforhodamine B assay; assay type: functional, cell-based
MCF7 = test: Growth inhibition of human MCF7 cells at 1 uM after 48 hrs by sulforhodamine B assay; assay type: functional, cell-based
UACC-257 [2] = test: Growth inhibition of human UACC257 cells after 48 hrs by sulforhodamine B assay; assay type: functional; conditions: UACC-257, 48 h
NCI-H460 = test: Growth inhibition of human NCI-H460 cells at 1 uM after 48 hrs by sulforhodamine B assay; assay type: functional, cell-based
UACC-62 [3] = test: Growth inhibition of human UACC62 cells after 48 hrs by sulforhodamine B assay; assay type: functional; conditions: UACC-62, 48 h
SK-MEL-5 [4] = test: Growth inhibition of human SK-MEL-5 cells after 48 hrs by sulforhodamine B assay; assay type: functional; conditions: SK-MEL-5, 48 h
DU-145 = test: Growth inhibition of human DU145 cells at 1 uM after 48 hrs by sulforhodamine B assay; assay type: functional, cell-based
SK-MEL-5 [5] = test: Growth inhibition of human SK-MEL-5 cells at 1 uM after 48 hrs by sulforhodamine B assay; assay type: functional, cell-based
SF-539 = test: Growth inhibition of human SF539 cells at 1 uM after 48 hrs by sulforhodamine B assay; assay type: functional, cell-based
SW-620 = test: Growth inhibition of human SW620 cells at 1 uM after 48 hrs by sulforhodamine B assay; assay type: functional, cell-based
T47D = test: Growth inhibition of human T47D cells at 1 uM after 48 hrs by sulforhodamine B assay; assay type: functional, cell-based
NCI/ADR-RES = test: Growth inhibition of human NCI/ADR-RES cells at 1 uM after 48 hrs by sulforhodamine B assay; assay type: functional, cell-based
UACC-257 [6] = test: Growth inhibition of human UACC257 cells at 1 uM after 48 hrs by sulforhodamine B assay; assay type: functional, cell-based
786-0 = test: Growth inhibition of human 786-0 cells at 1 uM after 48 hrs by sulforhodamine B assay; assay type: functional, cell-based
HOP-62 = test: Growth inhibition of human HOP62 cells at 1 uM after 48 hrs by sulforhodamine B assay; assay type: functional, cell-based
NCI-H522 [7] = test: Growth inhibition of human NCI-H522 cells at 1 uM after 48 hrs by sulforhodamine B assay; assay type: functional, cell-based
PC-3 = test: Growth inhibition of human PC3 cells at 1 uM after 48 hrs by sulforhodamine B assay; assay type: functional, cell-based
NCI-H23 = test: Growth inhibition of human NCI-H23 cells after 48 hrs by sulforhodamine B assay; assay type: functional; conditions: NCI-H23, 48 h
SF-295 [8] = test: Growth inhibition of human SF295 cells at 1 uM after 48 hrs by sulforhodamine B assay; assay type: functional, cell-based
KM12 [9] = test: Growth inhibition of human KM12 cells at 1 uM after 48 hrs by sulforhodamine B assay; assay type: functional, cell-based
OVCAR-8 = test: Growth inhibition of human OVCAR8 cells at 1 uM after 48 hrs by sulforhodamine B assay; assay type: functional, cell-based
HCT-15 = test: Growth inhibition of human HCT15 cells at 1 uM after 48 hrs by sulforhodamine B assay; assay type: functional, cell-based
SF530 = test: Growth inhibition of human SF530 cells at 1 uM after 48 hrs by sulforhodamine B assay; assay type: functional, cell-based
LOX IMVI [10] = test: Growth inhibition of human LOXIMVI cells at 1 uM after 48 hrs by sulforhodamine B assay; assay type: functional, cell-based
A549 = test: Growth inhibition of human A549 cells at 1 uM after 48 hrs by sulforhodamine B assay; assay type: functional, cell-based
SK-MEL-28 = test: Growth inhibition of human SK-MEL-28 cells at 1 uM after 48 hrs by sulforhodamine B assay; assay type: functional, cell-based
UACC-62 [11] = test: Growth inhibition of human UACC62 cells at 1 uM after 48 hrs by sulforhodamine B assay; assay type: functional, cell-based
ACHN = test: Growth inhibition of human ACHN cells at 1 uM after 48 hrs by sulforhodamine B assay; assay type: functional, cell-based
RPMI-8226 [12] = test: Growth inhibition of human RPMI8226 cells after 48 hrs by sulforhodamine B assay; assay type: functional; conditions: RPMI-8226, 48 h
MDA-MB-231 = test: Growth inhibition of human MDA-MB-231 cells at 1 uM after 48 hrs by sulforhodamine B assay; assay type: functional, cell-based
LOX IMVI [13] = test: Growth inhibition of human LOXIMVI cells after 48 hrs by sulforhodamine B assay; assay type: functional
OVCAR-3 = test: Growth inhibition of human OVCAR-3 cells after 48 hrs by sulforhodamine B assay; assay type: functional; conditions: OVCAR-3, 48 h
NCI-H522 [14] = test: Growth inhibition of human NCI-H522 cells after 48 hrs by sulforhodamine B assay; assay type: functional; conditions: NCI-H522, 48 h
SNB-75 = test: Growth inhibition of human SNB75 cells at 1 uM after 48 hrs by sulforhodamine B assay; assay type: functional, cell-based
HCT-116 = test: Growth inhibition of human HCT116 cells after 48 hrs by sulforhodamine B assay; assay type: functional; conditions: HCT-116, 48 h
OVCAR-4 [15] = test: Growth inhibition of human OVCAR4 cells at 1 uM after 48 hrs by sulforhodamine B assay; assay type: functional, cell-based
Hs-578T = test: Growth inhibition of human Hs 578T cells at 1 uM after 48 hrs by sulforhodamine B assay; assay type: functional, cell-based
SF-295 [16] = test: Growth inhibition of human SF295 cells after 48 hrs by sulforhodamine B assay; assay type: functional; conditions: SF-295, 48 h
COLO 205 = test: Growth inhibition of human COLO205 cells after 48 hrs by sulforhodamine B assay; assay type: functional; conditions: COLO 205, 48 h
KM12 [17] = test: Growth inhibition of human KM12 cells after 48 hrs by sulforhodamine B assay; assay type: functional; conditions: KM12, 48 h
OVCAR-4 [18] = test: Growth inhibition of human OVCAR4 cells after 48 hrs by sulforhodamine B assay; assay type: functional; conditions: OVCAR-4, 48 h
[19] = read-out: LC50 (the source's name)

Nc1nc(N)c2c(n1)NC(c1ccccc1)C1CCc3ccccc3C1=N2 (configuration not stated)
GI50 (MDA-MB-468): 0.473 µM | CC50 (MDA-MB-468; [19]): 20.8 µM | growth inhibition (GI) (RXF 393): inactive | growth inhibition (GI) (MDA-MB-435): inactive | GI50 (TK-10): 3.01 µM | LC50 (50% lethal concentration) (TK-10): 43.6 µM | growth inhibition (GI) (SK-MEL-2): inactive | growth inhibition (GI) (RPMI-8226 [1]): inactive | growth inhibition (GI) (HOP-92): inactive | growth inhibition (GI) (MCF7): inactive | GI50 (UACC-257 [2]): 3.72 µM | CC50 (UACC-257 [2]; [19]): 42.6 µM | growth inhibition (GI) (NCI-H460): inactive | GI50 (UACC-62 [3]): 3.11 µM | LC50 (UACC-62 [3]): 45 µM | GI50 (SK-MEL-5 [4]): 0.638 µM | LC50 (SK-MEL-5 [4]): 6.35 µM | growth inhibition (GI) (DU-145): inactive | growth inhibition (GI) (SK-MEL-5 [5]): inactive | growth inhibition (GI) (SF-539): inactive | growth inhibition (GI) (SW-620): inactive | growth inhibition (GI) (T47D): inactive | growth inhibition (GI) (NCI/ADR-RES): inactive | growth inhibition (GI) (UACC-257 [6]): inactive | growth inhibition (GI) (786-0): inactive | growth inhibition (GI) (HOP-62): inactive | growth inhibition (GI) (NCI-H522 [7]): inactive | growth inhibition (GI) (PC-3): inactive | GI50 (NCI-H23): 4.56 µM | LC50 (NCI-H23): 57.4 µM | growth inhibition (GI) (SF-295 [8]): inactive | growth inhibition (GI) (KM12 [9]): inactive | growth inhibition (GI) (OVCAR-8): inactive | growth inhibition (GI) (HCT-15): inactive | growth inhibition (GI) (SF530): inactive | growth inhibition (GI) (LOX IMVI [10]): inactive | growth inhibition (GI) (A549): inactive | growth inhibition (GI) (SK-MEL-28): inactive | growth inhibition (GI) (UACC-62 [11]): inactive | growth inhibition (GI) (ACHN): inactive | GI50 (RPMI-8226 [12]): 3.21 µM | LC50 (RPMI-8226 [12]): > 100 µM | growth inhibition (GI) (MDA-MB-231): inactive | GI50 (LOX IMVI [13]): 3.79 µM | LC50 (LOX IMVI [13]): 40.6 µM | GI50 (OVCAR-3): 3.48 µM | LC50 (lethal concentration, 50% cell kill) (OVCAR-3): 39.4 µM | GI50 (NCI-H522 [14]): 4.53 µM | LC50 (NCI-H522 [14]): 65.4 µM | growth inhibition (GI) (SNB-75): inactive | GI50 (HCT-116): 2.97 µM | LC50 (HCT-116): 38 µM | growth inhibition (GI) (OVCAR-4 [15]): inactive | growth inhibition (GI) (Hs-578T): inactive | GI50 (SF-295 [16]): 1.69 µM | LC50 (50% lethal concentration) (SF-295 [16]): 34.4 µM | GI50 (COLO 205): 3.07 µM | LC50 (50% lethal concentration) (COLO 205): 38.7 µM | GI50 (KM12 [17]): 4.07 µM | LC50 (concentration killing 50% of cells) (KM12 [17]): 39.7 µM | GI50 (OVCAR-4 [18]): 3.06 µM | LC50 (50% lethal concentration) (OVCAR-4 [18]): 62.3 µM
